Data taken from patent US6150357A, “Potassium channel agonists” (Merck & Co., Inc., priority 1999, dated 2000).
“Also recorded” adds a separate entry of the source. Like-named read-outs stand apart in the source and are kept apart here.

Tests used:
Assay type in all cases: cell-based
[1] = system: guinea pig isolated ventricular myocytes; assay: Action potential studies in guinea pig isolated ventricular myocytes
Text: Isolation of guinea pig ventricular myocytes. Guinea pig ventricular myocytes were isolated as described (Salata J J, Jurkiewicz N K, Wallace A A, Stupienski R F III, Guinosso P J Jr and Lynch J J Jr. (1995). Cardiac electrophysiologic actions of the histamine H1 -receptor antagonists astemizole and terfenadine compared with chlorpheniramine and pyrilamine. Circ Res 76: 110-119.). After isolation, the cells were stored in HEPES-buffered saline (HBS) containing (mM): 132 NaCl, 4 KCl, 1.8 CaCl2, 1.2 MgCl2, 10 HEPES (formal name N-2-Hydoxyethylpiperazine-N-2-ethanesulfonic acid), 10 glucose, pH=7.2, at 24-26° C. until studied, usually within 8 hours after isolation.
Action potential studies. Transmembrane potentials were recorded using conventional microelectrodes filled with 3 M KCl (tip resistances 30-50 M.OMEGA.) using an Axoclamp 2B amplifier (Axon Instruments; Foster City, Calif.) as described (Fermini B, Jurkiewicz N K, Jow B, Guinosso P J Jr, Baskin E P, Lynch J J Jr and Salata J J. (1995). Use-dependent effects of the Class III antiarrhythmic agent NE-10064 (azimilide) on cardiac repolarization: Block of delayed rectifier potassium and L-type calcium currents. J Cardiovasc Pharmacol 26: 259-271.). Cells were superfused with HBS maintained at 37° C. at a rate of 2 ml/min. APs were evoked with brief current pulses (1 ms, 1.2 times threshold) delivered at a frequency of 1 Hz through the recording electrode using an active bridge circuit. Only cells showing normal AP configurations and resting membrane potentials equal to or more negative than -85 mV were used in this study. APs were studied after a ≥5 min control period, and after ≥5 min of superfusion with each concentration of drug. After reaching a steady state effect under each condition, 20 individual APs were sampled and digitally averaged. The amplitude at 50 ms (APA50 ms) and duration at 90% repolarization (APD90) were measured from the digitally averaged records. Concentration-response relationships were determined by measuring APs or currents in each cell under control conditions and during superfusion with successively increasing concentrations of a given drug.
(§1) Solutions. Compounds were dissolved in dimethyl sulfoxide (DMSO) at a stock concentration of 1 or 10 mM and diluted directly into test solutions. Serial dilutions were used to achieve the final test concentrations. DMSO at the concentrations used had no significant effect on any of the parameters measured in these studies. Nisoldipine was prepared as a 4 mM stock solution in DMSO and diluted as needed.
(§2) Statistics. Data are expressed as mean ± SEM (N=number of cells). Concentration-dependent changes in AP parameters and individual ionic currents were assessed by repeated-measures analysis of variance (ANOVA). Post-Hoc comparison of the treatment to the control means were made with Dunnett's t-test to determine significant changes between the control and test group means. Statistical comparisons for the time constants of IKs activation and deactivation were made using a paired t-test. A one-tailed probability (p)<0.05 was considered significant.

[2] = system: slowly activating cardiac delayed rectifier potassium current (IKs); assay: Whole-cell voltage-clamp of IKs in guinea pig ventricular myocytes; conditions: 10 nM Iso alone; 0.5 s pulses
Text: (§3) Isolation of guinea pig ventricular myocytes.
(§4) Voltage-clamp of guinea pig ventricular myocytes. […] Pipettes were made from square bore (1.0 mm, o.d.) borosilicate capillary tubing (Glass Co. of America, Bargaintown, N. J.). […] (average 5.5±0.3 M.OMEGA.). Series resistance was compensated 40-70%. Currents were low-pass filtered (-3 dB at 0.2 kHz) before digitization at 1 kHz. […] Cells were voltage clamped at a holding potential (Vh) of -50 mV to inactivate INa. Time-dependent IKs amplitude was measured as the difference from the initial instantaneous current, following the settling of the capacity transient, to the final current level at the end of a depolarizing pulse. Tail current amplitude, IKtail, was measured as the difference from the holding current level to the peak tail current amplitude upon return to Vh. IKtail was normalized to the maximum measured amplitude (IKtail-max) following 7.5 s pulses. Averaged data was fit to a Boltzmann distribution of the form: IKtail /IKtail-max =1/(1+exp[(V1/2 -Vt)/k]) with a nonlinear least squares fitting routine (Origin, Microcal Software, Northampton, Mass.) to estimate the half-point (V1/2) and slope factor (k) for this relationship. The time courses of IKs activation and deactivation were fit with a double exponential relationship of the form: It =A0 +A1 e^-t/t 1+A2 e^-t/t 2 using a Chebeshev non-iterative fitting technique (pCLAMP, Axon Instruments, Foster City, Calif.).
(§5) Solutions. Compounds were dissolved in dimethyl sulfoxide (DMSO) at a stock concentration of 1 or 10 mM and diluted directly into test solutions. Serial dilutions were used to achieve the final test concentrations. […] Nisoldipine was prepared as a 4 mM stock solution in DMSO and diluted as needed.
as §2

[3] = biological target: T1, slowly activating cardiac delayed rectifier potassium current (IKs) (Cavia porcellus, UniProt O70344); assay: as above; conditions: for V1/2 of IKs activation (isochronal, 7.5 s pulses): control 19.2±1.6 mV
T1 construct: Guinea pig ventricular myocytes were isolated as described; endogenous in cells; host or cells: isolated guinea pig ventricular myocytes
Text: as §3, §4, §5, §2

human KvLQT1 channels = biological target: T2, human KvLQT1 channels (Homo sapiens, UniProt P51787); assay: Two-microelectrode voltage clamp of cloned KvLQT1 channels expressed in Xenopus oocytes; conditions: 1 μM
T2 construct: homotetramer
Protocol: cRNA injection and voltage-clamp of oocytes. The isolation and maintenance of Xenopus oocytes, in vitro transcription of KvLQT1 complementary RNA (cRNA) and its injection into oocytes were performed as described previously (Sanguinetti M C, Curran M E, Zou A, Shen J, Spector P S, Atkinson D L and Keating M T. (1996b). Coassembly of KvLQT1 and minK (IsK) proteins form cardiac IKs potassium channel. Nature 384: 80-83.; Sanguinetti M C, Jiang C, Curran M E and Keating M T. (1995). A mechanistic link between an inherited and an acquired cardiac arrhythmia: HERG encodes the IKr potassium channel. Cell 81: 299-307.). Stage V and VI oocytes were injected with 11.5 ng of KvLQT1 cRNA (46 nL of a 250 ng/μL solution) Currents were recorded 2 to 4 days later using standard two-microelectrode voltage clamp techniques and a Dagan TEV-200 amplifier. Oocytes were bathed at room temperature (22-25° C.) in a solution containing (mM): 94 NaCl, 2 KCl, 2 MgCl2, 0.1 CaCl2, 5 HEPES; pH 7.6.
as §1

[4] = 10 μM, read-out: Agonist Effect - % Increase in IKs, Vt +50 mV
[5] = 1 μM, read-out: Agonist Effect - % Increase in IKs, Vt +50 mV
[6] = 10 μM, read-out: Agonist Effect - % Increase in IKs, Vt -10 mV

T2 sequence (P51787 whole entry): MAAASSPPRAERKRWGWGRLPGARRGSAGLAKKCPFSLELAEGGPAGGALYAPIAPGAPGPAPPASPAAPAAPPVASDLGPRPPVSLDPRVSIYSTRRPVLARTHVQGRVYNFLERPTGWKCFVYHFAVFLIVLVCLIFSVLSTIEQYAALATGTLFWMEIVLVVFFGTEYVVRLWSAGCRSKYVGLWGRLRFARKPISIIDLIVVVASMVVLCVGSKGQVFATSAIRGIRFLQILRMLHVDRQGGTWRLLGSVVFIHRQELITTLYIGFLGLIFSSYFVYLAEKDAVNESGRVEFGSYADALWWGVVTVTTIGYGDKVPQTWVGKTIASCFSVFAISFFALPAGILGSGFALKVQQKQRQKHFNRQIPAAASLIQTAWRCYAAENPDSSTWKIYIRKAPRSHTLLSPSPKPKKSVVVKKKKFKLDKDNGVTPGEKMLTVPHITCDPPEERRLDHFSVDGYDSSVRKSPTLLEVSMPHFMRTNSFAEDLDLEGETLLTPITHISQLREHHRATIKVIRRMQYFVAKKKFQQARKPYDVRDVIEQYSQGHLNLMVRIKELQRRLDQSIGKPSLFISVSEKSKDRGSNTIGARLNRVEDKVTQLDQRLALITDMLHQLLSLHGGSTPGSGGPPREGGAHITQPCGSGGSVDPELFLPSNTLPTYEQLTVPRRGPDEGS

## CC(C)NCC(O)c1ccc(O)c(O)c1 (stereo not drawn) [Iso, isoproterenol, reference compound]
[1]; 30 nM Iso alone
  decrease in APD90: 12.9±2.9%
[1]; Cavia porcellus, Ventricular myocyte, 30 nM Iso alone, read-out: increase in APA50ms
  activation at 0.03 µM: 6.6 ± 2.9%
[2]
  increase in IKs: 1.75 fold

## Cc1cccc(N2C(=O)NC3(N=C(c4ccccc4)c4ccccc4N(C)C3=O)C2=O)c1 (stereo not drawn) [L6, 1-methyl-5-phenyl-1'-(3-tolyl)-spiro[3H-1,4-benzodiazepine-3,4'-imidazolidine]-2(1H),2',5'-trione]
[3]; [4]
  activation at 10 µM: 31 ± 9%

## O=C1CC2(CCN(C(=O)Nc3ccccc3)CC2)Oc2ccccc21 [L7, N-phenyl-1'-(carboxamido)-spiro[2H-1-benzopyran-2,4'-piperidin]-4(3H)-one]
[3]; 1 μM
  Agonist Effect - % Increase in IKs, Vt -10 mV: no change
[3]; [5]
  activation at 1 µM: 111 ± 28%

## Cc1cccc(NC(=O)N2CCC3(CC2)CC(=O)c2ccccc2O3)c1 [L8, N-(3-tolyl)-1'-(carboxamido)-spiro[2H-1-benzopyran-2,4'-piperidin]-4(3H)-one]
[3]; 10 μM
  Agonist Effect - % Increase in IKs, Vt -10 mV: no change
[3]; [4]
  activation at 10 µM: 65 ± 17%

## CN1C(=O)[C@@H](Cc2c[nH]c3ccccc23)N=C(c2ccccc2F)c2ccccc21 [R-L3, (3-R)-1,3-dihydro-5-(2-fluorophenyl)-3-(1H-indol-3-ylmethyl)-1-methyl-2H-1,4-benzodiazepin-2-one]
[1]; 1 μM R-L3 in the continued presence of 100 nM timolol
  decrease in APD90: 14.6±2.2%
[1]; 1 μM R-L3 in the presence of 30 nM Iso
  decrease in APD90: 26.9±1.4%
[1]; 1 μM, stimulation at 1 Hz
  decrease in APD90: 14.2±1.6%
[1]; 10 μM, stimulation at 1 Hz
  decrease in APD90: 13.8±4.0%
[1]; 0.1-1.0 μM, 1 Hz
  effect on APD: concentration-dependent shortening of APD
[1]; 1 Hz
  concentration at which shortening of APD was maximal: 1 µM
[3]; 30 nM, 3 s depolarizations to Vt -10 mV from Vh -50 mV, read-out: IKs increased by a factor
  fold induction at 0.03 µM: 17 ± 5
[3]; 0.1 μM
  V1/2 of IKs activation (isochronal, 7.5 s pulses): 3.0±0.8 mV
[3]; 0.1 μM, read-out: Agonist Effect - % Increase in IKs, Vt +50 mV
  activation at 0.1 µM: 25 ± 6%
[3]; 0.1 μM, read-out: Agonist Effect - % Increase in IKs, Vt -10 mV
  activation at 0.1 µM: 431 ± 123%
[3]; 1 μM
  fast time constants of IKs activation: slightly, but not significantly, faster
  V1/2 of IKs activation (isochronal, 7.5 s pulses): -4.9±3.4 mV
[3]; 1 μM, Vt +60 mV, control 896±196 pA, not significantly increased
  maximally activated IKs: 953±183 pA
[3]; 1 μM, following pretreatment with 100 nM timolol
  shift of V1/2 of IKs activation: -19 mV
[3]; [5]
  activation at 1 µM: 40 ± 12%
[3]; 10 μM, Vh -50 mV
  effect on time-dependent IKs at the end of 7.5 s pulses: increased time-dependent IKs at the end of 7.5 s pulses to potentials <+10 mV, but decreased IKs at more positive potentials
[3]; 0.1 and 1 μM, control k 11.0±1.2 mV
  effect on slope factor k of IKs activation: not significantly changed; also recorded: had no effect on k
[3]; -60 to -10 mV following 3 s pre-pulse to +30 mV
  fast and slow time constants of IKs deactivation: significantly increased
[3]; Vt -10 mV
  lowest concentration enhancing IKs: 30 nM
[3]; Vt -10 mV, 3 s pulses
  concentration of maximal effect on IKs: 1 µM
Human KvLQT1 channels
  net effect on rate of KvLQT1 activation: slow the rate of KvLQT1 activation
  shift in the voltage dependence of KvLQT1 activation: -10 mV
Human KvLQT1 channels; 2 s pulses to -70 to +60 mV
  effect on KvLQT1 current: increased KvLQT1
Human KvLQT1 channels; control 11 mV
  slope factor (k) of KvLQT1 activation: 13 mV
Human KvLQT1 channels; control -28 mV
  V1/2 of KvLQT1 activation: -40 mV
Human KvLQT1 channels; voltages negative to -40 mV
  effect on rate of KvLQT1 deactivation: slowed the rate of KvLQT1 deactivation

## O=C1Nc2ccccc2C(c2ccccc2F)=N[C@@H]1Cc1c[nH]c2ccccc12 [R-L4, (3-R)-1,3-dihydro-5-(2-fluorophenyl)-3-(1H-indol-3-ylmethyl)-2H-1,4-benzodiazepin-2-one]
[3]; [5]
  activation at 1 µM: 44 ± 9%
[3]; 1 μM, read-out: Agonist Effect - % Increase in IKs, Vt -10 mV
  activation at 1 µM: 27 ± 7%
[3]; [4]
  activation at 10 µM: 114 ± 13%
[3]; [6]
  activation at 10 µM: 153 ± 37%

## O=C1Nc2ccc(Cl)cc2C(c2ccccc2)=N[C@@H]1Cc1c[nH]c2ccccc12 [R-L5, (3-R)-7-chloro-1,3-dihydro-5-phenyl-3-(1H-indol-3-ylmethyl)-2H-1,4-benzodiazepin-2-one]
[3]; [4]
  activation at 10 µM: 22 ± 6%
[3]; [6]
  activation at 10 µM: 22 ± 10%

## CN1C(=O)[C@H](Cc2c[nH]c3ccccc23)N=C(c2ccccc2F)c2ccccc21 [S-L3]
[3]; 1 μM, end of a 1-s test pulse to +50 mV, read-out: block of IKs
  inhibition at 1 µM: 14.8 ± 4.3%
[3]; 10 μM, end of a 1-s test pulse to +50 mV, read-out: block of IKs
  inhibition at 10 µM: 68.8 ± 3.4%
[3]; 1 to 10 μM, test potentials -10 to +50 mV
  effect on IKs: blocked IKs at all concentrations

## CC(C)(C)NC[C@H](O)COc1nsnc1N1CCOCC1 [timolol, reference compound]
[1]; 100 nM timolol
  effect on AP configuration: did not alter AP configuration
  effect on the effects of 30 nM Iso on the action potential: prevented the effects of 30 nM Iso
